# Test results: paper PMC7284870, “Antimicrobial Peptides from Rat-Tailed Maggots of the Drone Fly Eristalis tenax Show Potent Activity against Multidrug-Resistant Gram-Negative Bacteria” (Microorganisms, 2020)
# Like-named read-outs stand apart in the source and are kept apart here. No end group written: not given here.
# Assays:
# Canida albicans FH2173 = assay type: cell-based, Candida albicans; conditions: CAMB, 24 h, 37 °C, n = 4
# Procedure, shortened: (§1)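 Broth microdilution in cation-adjusted Mueller–Hinton broth at 37 °C, with 18 h cultures diluted to 5 × 10^5 cells/mL and final peptide concentrations of 1024–0.03125 µg/mL. Growth was scored visually and by OD600. MIC is the lowest concentration with no growth; medium was optionally supplemented with 150 mM NaCl or 1.25 mM CaCl2.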
# K. pneumoniae RKI 268/15 = assay type: cell-based, Klebsiella pneumoniae
# Procedure: (§2) The strains that were used in this study (Table 2 and Table S1) were cultivated at 37 °C in cation-adjusted Mueller–Hinton broth (CAMB) in Erlenmeyer flasks, or on the same medium with agar in Petri dishes. Exceptionally, Mycobacterium smegmatis was cultivated at 37 °C in brain heart infusion (BHI) medium that was supplemented with 1% Tween-80 in Erlenmeyer flasks, or on the same medium lacking detergent but with agar in Petri dishes. Strains listed with Robert Koch Institute (RKI) strain numbers are clinical isolates from the RKI strain collection originating from hospitalized patients in Germany. The remaining strains originated from the Sanofi strain collection and they were originally purchased from the American Type Culture Collection or the German Collection of Microorganisms and Cell Cultures. Meropenem/colistin-resistant strains were maintained, as described above, with the appropriate antibiotic added at levels below the minimal inhibitory concentration (MIC).
# (§3) The MIC values were determined in 384-well microtiter plates with an assay volume of 20 µL. Immediately before each assay, the cultures of test organisms (bacteria grown for 18 h, Candida albicans and M. smegmatis grown for 48 h) were diluted with the appropriate medium to a density of 1 × 10^6 cells/mL (C. albicans), 1 × 10^5 cells/mL (M. smegmatis) or 5 × 10^5 cells per mL (other species). […] We transferred 2-µL aliquots from this dilution series to new 384-well microtiter plates while using a CyBio-Well 384-channel automated pipettor (Analytic Jena, Jena, Germany) and added 18 µL of the diluted suspension of each test species using a Viafill reagent dispenser (Integra), thus reducing the final peptide concentration 10-fold to the range 1024–0.03125 µg/mL. […] The growth of M. smegmatis was measured using the BacTiter-Glo luminescence test system (Promega, Madison, WI, USA). The growth of the other species was determined by visual inspection of the microtiter plate and turbidimetry based on the optical density at 600 nm (OD600). The MIC was defined as the peptide concentration at which no bacterial growth was observed. We supplemented the test medium with either 150 mM NaCl or 1.25 mM CaCl2 to represent monovalent and divalent cations to simulate physiological conditions.
# K. pneumoniae RKI 68/16 = assay type: cell-based, Klebsiella pneumoniae
# Procedure: as §2, §3
# [1] = tested on: Enterococcus faecium DSM 17050; assay type: cell-based; conditions: CAMB, 18 h, 37 °C, n = 4
# Procedure, shortened: as §1
# [2] = tested on: Gram-negative clinical isolates; assay type: cell-based
# Procedure, shortened: as §1
# [3] = tested on: Listeria monocytogenes DSM 20600; assay type: cell-based; conditions: CAMB, 18 h, 37 °C, n = 4
# Procedure, shortened: as §1
# [4] = tested on: Mycobacterium smegmatis ATCC 607; assay type: cell-based; conditions: BHI, 48 h, 37 °C, BacTiter-Glo, n = 4
# [5] = tested on: Proteus mirabilis DSM 4479; assay type: cell-based; conditions: CAMB, 18 h, 37 °C, n = 4
# Procedure, shortened: as §1
# [6] = tested on: Staphylococcus epidermidis ATCC 35984; assay type: cell-based; conditions: CAMB, 18 h, 37 °C, n = 4
# Procedure, shortened: as §1
# [7] = tested on: Stenotrophomonas maltophilia RKI 136/09; assay type: cell-based
# Procedure, shortened: as §1
# human erythrocytes = assay: Hemolysis of human erythrocytes; conditions: hRBC in PBS, 3 h, 37 °C, A540; highest tested 1024 µg/mL
# Procedure: Fresh citrated stabilized human whole blood was centrifuged at 500× g for 5 min. and the cell sediment was washed three times with phosphate buffered saline (PBS) before resuspending in PBS (50-fold the initial sample volume) to generate the human red blood cell (hRBC) suspension. The peptides were dissolved in sterile water at a concentration of 10.24 mg/mL and a dilution series was prepared in a 384-well microtiter plate, as above, to achieve the concentration range 10,240–0.3125 µg/mL in a volume of 50 µL. Triton X-100 (positive control) was diluted in sterile water to cover the concentration range 20–0.02%. We transferred 5-µL aliquots to new 384-well microtiter plates using the CyBio-Well 384-channel automated pipettor and added 45 µL of the hRBC suspension while using the Viafill reagent dispenser to achieve the final peptide concentration range 1024–0.031 µg/mL. After incubation at 37 °C. for 3 h, the plate was centrifuged and 20 μL of the supernatant from each well was transferred to a new microtiter plate. The quantity of released hemoglobin was determined by measuring the absorbance at 540 nm using a Lumistar plate reader (BMG Labtech, Ortenberg, Germany). The percent hemolysis was calculated by comparing to a control without peptide (no hemolysis) and a control with 2% Triton X-100 (100% hemolysis).
# [8] = tested on: Acinetobacter pittii clinical isolate (1); assay: MIC, clinical isolates; assay type: cell-based; conditions: Table S1, RKI 588/16
# Procedure: as §2, §3
# [9] = tested on: Enterobacter aerogenes clinical isolate (1); assay: MIC, clinical isolates; assay type: cell-based; conditions: Klebsiella aerogenes; Table S1, RKI 1026/14-1
# Procedure: as §2, §3
# [10] = tested on: Klebsiella pneumoniae clinical isolates (21); assay: MIC, clinical isolates; assay type: cell-based
# Procedure: as §2, §3
# [11] = tested on: Morganella morganii clinical isolates (4); assay: MIC, clinical isolates; assay type: cell-based
# Procedure: as §2, §3
# [12] = tested on: Stenotrophomonas maltophilia clinical isolates (2); assay: MIC, clinical isolates; assay type: cell-based; conditions: Table S1, RKI 729/15
# Procedure: as §2, §3
# [13] = tested on: P. aeruginosa clinical isolates (2); assay type: cell-based, Pseudomonas aeruginosa
# Procedure: as §2
# as §3, with “The MIC was defined as the peptide concentration at which no bacterial growth was observed. We supplemented the test medium with either 150 mM NaCl or 1.25 mM CaCl2 to represent monovalent and divalent cations to simulate physiological conditions.” left out
compound,measurement,setting,value
GWLRDFGKRIERTGQNIRDATIQTIGIAQEAANVAATLK-NH2 [EtCec2-NH2],MIC,Canida albicans FH2173,>1024 µg/mL
same,MIC,"K. pneumoniae RKI 268/15; Table 4, CAMB, n=3",64 µg/mL
same,MIC,"K. pneumoniae RKI 68/16; Table 4, CAMB, n=3",128 µg/mL
same,MIC,[1],>1024 µg/mL
same,MIC,[2]; isolates of M. morganii and S. fonticola,> 128 µg/mL
same,MIC,[3],>1024 µg/mL
same,MIC,[4],>1024 µg/mL
same,MIC,[5],>1024 µg/mL
same,MIC,[6],>1024 µg/mL
same,MIC,"[7]; CAMB adjusted to 150 mM NaCl, n=3",512 µg/mL
same,MIC,"[7]; Table 4, CAMB, n=3",256 µg/mL
same,minimal hemolytic concentration,human erythrocytes,512 µg/mL
"C[C@@H](O)[C@H]1C(=O)N2C(C(=O)O)=C(S[C@@H]3CN[C@H](C(=O)N(C)C)C3)[C@H](C)[C@H]12 [MEM, meropenem]",MIC,"K. pneumoniae RKI 268/15; Table S1, RKI 268/15",16 µg/mL
same,MIC,"K. pneumoniae RKI 68/16; Table S1, RKI 68/16",≤ 0.5 µg/mL
same,MIC,"[7]; Table S1, RKI 136/09",> 64 µg/mL
same,MIC,[8],≤ 0.5 µg/mL
same,MIC,[9],16 µg/mL
same,MIC,"[10]; Klebsiella pneumoniae, Table S1, RKI 600/16, read-out: MIC",≤ 0.5 µg/mL
same,MIC,"[10]; Table S1, RKI 19/16",≤ 0.5 µg/mL
same,MIC,"[10]; Table S1, RKI 80/15",≤ 0.5 µg/mL
same,MIC,"[10]; Table S1, RKI 94/15",≤ 0.5 µg/mL
same,MIC,"[10]; Table S1, RKI 95/16",≤ 0.5 µg/mL
same,MIC,"[10]; Table S1, RKI 107/15",1 µg/mL
same,MIC,"[10]; Table S1, RKI 138/16",≤ 0.5 µg/mL
same,MIC,"[10]; Table S1, RKI 164/16",> 64 µg/mL
same,MIC,"[10]; Table S1, RKI 229/15",16 µg/mL
same,MIC,"[10]; Table S1, RKI 320/16",≤ 0.5 µg/mL
same,MIC,"[10]; Table S1, RKI 328/16",64 µg/mL
same,MIC,"[10]; Table S1, RKI 373/16-1",≤ 0.5 µg/mL
same,MIC,"[10]; Table S1, RKI 393/16",≤ 0.5 µg/mL
same,MIC,"[10]; Table S1, RKI 461/16",≤ 0.5 µg/mL
same,MIC,"[10]; Table S1, RKI 503/15",32 µg/mL
same,MIC,"[10]; Table S1, RKI 544/13",> 64 µg/mL
same,MIC,"[10]; Table S1, RKI 577/15",≤ 0.5 µg/mL
same,MIC,"[10]; Table S1, RKI 908/15",32 µg/mL
same,MIC,"[11]; Table S1, RKI 81/15",≤ 0.5 µg/mL
same,MIC,"[11]; Table S1, RKI 93/15",≤ 0.5 µg/mL
same,MIC,"[11]; Table S1, RKI 599/16",> 64 µg/mL
same,MIC,"[11]; Table S1, RKI 659/13",≤ 0.5 µg/mL
same,MIC,[12],> 64 µg/mL
same,MIC,"[13]; Table S1, RKI 93/12",16 µg/mL
same,MIC,"[13]; Table S1, RKI 628/16",8 µg/mL
QFNMQGGGSPRQGFDVNANARFPIWQSQNARNSVHGTASYAQHLGGPYGNSRPNFGGGLQFT [EtDip],MIC,Canida albicans FH2173,>1024 µg/mL
same,MIC,[1],>1024 µg/mL
same,MIC,[3],>1024 µg/mL
same,MIC,[4],64 µg/mL
same,MIC,[5],>1024 µg/mL
same,MIC,[6],>1024 µg/mL
same,minimal hemolytic concentration,human erythrocytes,> 1024 µg/mL
GFLKKIGKKLEGAVQRTRDATIQTIAVAQAAANVAATAKQ-NH2 [EtCec1-NH2],MIC,[2]; 18 h,≥ 64 µg/mL
same,MIC,"[13]; clinical isolates (2, 18 h)",128 µg/mL
